From patent US20220226354A1, “GLP-1 SECRETION-PROMOTING COMPOSITION” (SUNTORY HOLDINGS LIMITED, priority 2019, published 2022) come the findings set out here.

Data set [1] is described as follows: Dissolution of sample during sample preparation (Experimental Example 2). Particulars: final concentration of 1.5 mM (#24), 1% DMSO-containing PBS. Format: physicochemical. On the procedure: To 20 mg of RebC, 21 μL of DMSO (manufactured by FUJIFILM Wako Pure Chemical Corporation, model number: 037-24053) was added. The mixture was then stirred by vortex and allowed to stand for several hours to obtain a stock solution having a RebC concentration of 1,000 mM. The obtained stock solution and PBS were used to prepare a 10 mM solution.
The 10 mM solution was diluted as needed with 1% DMSO-containing PBS to obtain Sample G-1 mM to Sample G-10 mM. The concentrations of RebC are described in Table 1.

Another data set deals with H716. Kind of data set: GLP-1 secretion amount of sweeteners, 24 hours (Experimental Example 1). The class given is cell-based, human. Particulars: H716, 24 hours after addition of stock solution, PBS as negative control (no sample). On the procedure: RebA. RebB, RebM. RebN. RebD. RebC, MogV, and stevioside were examined for their GLP-1 secretion-promoting effects. Specifically, the amount of GLP-1 secretion was measured by the following procedures.
Each test substance B, C, D, E, F, G, I, or J was dissolved in PBS (Thermo Fisher Scientific Inc.) (Cat. No. 14190250) to obtain a stock solution. The concentration of the stock solution is shown below:
B (RebA); 5 mM, C (RebB); 1M, D (RebM); 2.5 mM, E (RebN); 1M, F (RebD); 2.5 mM, G (RebC); 2.5 mM, I (MogV); 1M, J(stevioside); 1M
H716 (ATCC) (Cat. No. ATCC®, CCL-251) was cultured in RPMI 1640 (10% FBS (Thermo Fisher Scientific Inc.) (Cat. No. 10439024), 1 mM Sodium Pyruvate) in an incubator at 37° C., 5% CO2.
The preculture was performed for 2 weeks, and the cells were sufficiently recovered, and then cell stocks were prepared.
Cells were seeded in 96-well plates at 2×10^5 cells/90 μL (high) per well (N=4). At this time, the content of FBS in the medium was lowered to 0.5% to suppress cell proliferation.
After 24 hours, the sample at the highest concentration (i.e., stock solution) was added by […] each.
After further 24 hours, quantitation of GLP-1 was performed. Specific procedures were followed the user guide of Human GLP-1 (7-36 amide) Immunoassay kit (Cat. No. AL359) (Lot number 2361115) provided by PerkinElmer, Inc. PBS was used as a negative control (no sample).

As to rebaudioside C [RebC], the dissolution of sample result in data set [1] was “not able to be dissolved”. Also, the “amount of GLP-1 secretion compared with no sample” value with H716 was “significantly larger amounts of GLP-1 secretion than no sample”. For `C=C1C[C@@]23CC[C@H]4[C@@](C)(CCC[C@@]4(C)C(=O)O[C@@H]4O[C@H](CO)[C@@H](O)[C@H](O)[C@H]4O)[C@@H]2CC[C@]1(O[C@@H]1O[C@H](CO)[C@@H](O)[C@H](O)[C@H]1O[C@@H]1O[C@H](CO)[C@@H](O)[C@H](O)[C@H]1O)C3` [stevioside, Stevioside], the “amount of GLP-1 secretion compared with no sample” value in the data set on H716 is “significantly larger amounts of GLP-1 secretion than no sample”. On the same count and under the same terms, the same measure for `C[C@H](CC[C@@H](O[C@@H]1O[C@H](CO[C@@H]2O[C@H](CO)[C@@H](O)[C@H](O)[C@H]2O)[C@@H](O)[C@H](O)[C@H]1O[C@@H]1O[C@H](CO)[C@@H](O)[C@H](O)[C@H]1O)C(C)(C)O)[C@H]1CC[C@@]2(C)[C@@H]3CC=C4[C@@H](CC[C@H](O[C@@H]5O[C@H](CO[C@@H]6O[C@H](CO)[C@@H](O)[C@H](O)[C@H]6O)[C@@H](O)[C@H](O)[C@H]5O)C4(C)C)[C@]3(C)[C@H](O)C[C@]12C` [MogV, mogroside V]: “significantly larger amounts of GLP-1 secretion than no sample”; for `C=C1C[C@@]23CC[C@H]4[C@@](C)(CCC[C@@]4(C)C(=O)O[C@@H]4O[C@H](CO)[C@@H](O)[C@H](O)[C@H]4O)[C@@H]2CC[C@]1(O[C@@H]1O[C@H](CO)[C@@H](O)[C@H](O[C@@H]2O[C@H](CO)[C@@H](O)[C@H](O)[C@H]2O)[C@H]1O[C@@H]1O[C@H](CO)[C@@H](O)[C@H](O)[C@H]1O)C3` [RebA, Rebaudioside A]: “significantly larger amounts of GLP-1 secretion than no sample”. Still for that read-out and setting: in the case of rebaudioside B [RebB] it was “significantly larger amounts of GLP-1 secretion than no sample”.
